PubChem BioAssay (NCI)
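48-hour exposure; five concentrations; linearly interpolated endpoints. GI50 is the concentration that inhibits growth by half. TGI denotes the concentration required for complete inhibition of growth.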

Tests used:
Assay in all cases: NCI tumour cell line growth inhibition, 48 h
DU-145 prostate = test system: DU-145 prostate
HOP-62 NSCLC = test system: HOP-62 NSCLC
RPMI-8226 leukemia = test system: RPMI-8226 leukemia
ACHN renal = test system: ACHN renal
HCC-2998 colon = test system: HCC-2998 colon
SK-MEL-28 melanoma = test system: SK-MEL-28 melanoma
HCT-15 colon = test system: HCT-15 colon
KM12 colon = test system: KM12 colon
SW-620 colon = test system: SW-620 colon
PC-3 prostate = test system: PC-3 prostate
TK-10 renal = test system: TK-10 renal
COLO 205 colon = test system: COLO 205 colon
U251 CNS = test system: U251 CNS
RXF 393 renal = test system: RXF 393 renal
SNB-19 CNS = test system: SNB-19 CNS
SF-268 CNS = test system: SF-268 CNS
UACC-62 melanoma = test system: UACC-62 melanoma
SN12C renal = test system: SN12C renal
OVCAR-5 ovarian = test system: OVCAR-5 ovarian
BT-549 breast = test system: BT-549 breast
MOLT-4 leukemia = test system: MOLT-4 leukemia
A549 NSCLC = test system: A549 NSCLC
A498 renal = test system: A498 renal
NCI/ADR-RES ovarian = test system: NCI/ADR-RES ovarian
HL-60(TB) leukemia = test system: HL-60(TB) leukemia
CAKI-1 renal = test system: CAKI-1 renal
K-562 leukemia = test system: K-562 leukemia
MDA-MB-231 breast = test system: MDA-MB-231 breast
T-47D breast = test system: T-47D breast
HT29 colon = test system: HT29 colon
UO-31 renal = test system: UO-31 renal
NCI-H460 lung = test system: NCI-H460 lung
SK-OV-3 ovarian = test system: SK-OV-3 ovarian
HS 578T breast = test system: HS 578T breast
SF-539 CNS = test system: SF-539 CNS
NCI-H226 lung = test system: NCI-H226 lung
NCI-H23 lung = test system: NCI-H23 lung
IGROV1 ovarian = test system: IGROV1 ovarian
SK-MEL-2 melanoma = test system: SK-MEL-2 melanoma
OVCAR-4 ovarian = test system: OVCAR-4 ovarian
HCT-116 colon = test system: HCT-116 colon
786-0 renal = test system: 786-0 renal
SK-MEL-5 melanoma = test system: SK-MEL-5 melanoma
NCI-H522 lung = test system: NCI-H522 lung
SR leukemia = test system: SR leukemia
OVCAR-3 ovarian = test system: OVCAR-3 ovarian
M14 melanoma = test system: M14 melanoma
UACC-257 melanoma = test system: UACC-257 melanoma
OVCAR-8 ovarian = test system: OVCAR-8 ovarian
MDA-MB-435 = test system: MDA-MB-435
MCF7 breast = test system: MCF7 breast
LOX IMVI melanoma = test system: LOX IMVI melanoma
SNB-75 CNS = test system: SNB-75 CNS
SF-295 CNS = test system: SF-295 CNS
HOP-92 NSCLC = test system: HOP-92 NSCLC
MALME-3M melanoma = test system: MALME-3M melanoma

`CC(C)C[C@H](NC(=O)Cn1ccc(Nc2ccccc2)cc1=O)B(O)O` gave a GI50 (DU-145 prostate) of 10.7 µM, a TGI (DU-145 prostate) of over 100 µM and a GI50 (HOP-62 NSCLC) of 6.23 µM. For the same molecule, the TGI (HOP-62 NSCLC) was 40.9 µM, the GI50 (RPMI-8226 leukemia) was 345 nM and the TGI (RPMI-8226 leukemia) was 949 nM. It also gave a GI50 (ACHN renal) of 3.04 µM, a TGI (ACHN renal) of over 100 µM and a GI50 (HCC-2998 colon) of 2020 nM. The TGI (HCC-2998 colon) was 4.76 µM, the GI50 (SK-MEL-28 melanoma) was 665 nM and the TGI (SK-MEL-28 melanoma) was 4.49 µM. The GI50 (HCT-15 colon) was 8.66 µM, the TGI (HCT-15 colon) was over 100 µM and the GI50 (KM12 colon) was 3.08 µM. It also gave a TGI (KM12 colon) of 12.4 µM, a GI50 (SW-620 colon) of 2000 nM and a TGI (SW-620 colon) of 23.9 µM. It also gave a GI50 (PC-3 prostate) of 5.06 µM, a TGI (PC-3 prostate) of 36 µM and a GI50 (TK-10 renal) of 3.28 µM. The TGI (TK-10 renal) was 25.3 µM, the GI50 (COLO 205 colon) was 8.25 µM and the TGI (COLO 205 colon) was over 100 µM. For the same molecule, the GI50 (U251 CNS) was 5.04 µM, the TGI (U251 CNS) was over 100 µM and the GI50 (RXF 393 renal) was 1810 nM. For the same molecule, the TGI (RXF 393 renal) was 4.78 µM, the GI50 (SNB-19 CNS) was 16.6 µM and the TGI (SNB-19 CNS) was over 100 µM. For the same molecule, the GI50 (SF-268 CNS) was 2880 nM, the TGI (SF-268 CNS) was 18.6 µM and the GI50 (UACC-62 melanoma) was 2440 nM. The TGI (UACC-62 melanoma) was 18.1 µM, the GI50 (SN12C renal) was 5.17 µM and the TGI (SN12C renal) was 28 µM. The GI50 (OVCAR-5 ovarian) was 6.24 µM, the TGI (OVCAR-5 ovarian) was 90 µM and the GI50 (BT-549 breast) was 1190 nM. It also gave a TGI (BT-549 breast) of 11.7 µM, a GI50 (MOLT-4 leukemia) of 468 nM and a TGI (MOLT-4 leukemia) of 11.7 µM. The GI50 (A549 NSCLC) was 8.34 µM, the TGI (A549 NSCLC) was over 100 µM and the GI50 (A498 renal) was 1070 nM. It also gave a TGI (A498 renal) of 6.78 µM, a GI50 (NCI/ADR-RES ovarian) of 65.6 µM and a TGI (NCI/ADR-RES ovarian) of over 100 µM. The GI50 (HL-60(TB) leukemia) was 3.32 µM, the TGI (HL-60(TB) leukemia) was 72.6 µM and the GI50 (CAKI-1 renal) was 4.02 µM. For the same molecule, the TGI (CAKI-1 renal) was 60.4 µM, the GI50 (K-562 leukemia) was 3.67 µM and the TGI (K-562 leukemia) was over 100 µM. The GI50 (MDA-MB-231 breast) was 3.09 µM, the TGI (MDA-MB-231 breast) was 15.2 µM and the GI50 (T-47D breast) was 1010 nM. For the same molecule, the TGI (T-47D breast) was 3.38 µM, the GI50 (HT29 colon) was 1060 nM and the TGI (HT29 colon) was 13.2 µM. The GI50 (UO-31 renal) was 5.59 µM, the TGI (UO-31 renal) was 39.6 µM and the GI50 (NCI-H460 lung) was 8.41 µM. For the same molecule, the TGI (NCI-H460 lung) was 42.5 µM, the GI50 (SK-OV-3 ovarian) was 11.5 µM and the TGI (SK-OV-3 ovarian) was over 100 µM. The GI50 (HS 578T breast) was 1860 nM, the TGI (HS 578T breast) was 7.16 µM and the GI50 (SF-539 CNS) was 781 nM. It also gave a TGI (SF-539 CNS) of 5.81 µM, a GI50 (NCI-H226 lung) of 352 nM and a TGI (NCI-H226 lung) of 1470 nM. For the same molecule, the GI50 (NCI-H23 lung) was 3.45 µM, the TGI (NCI-H23 lung) was over 100 µM and the GI50 (IGROV1 ovarian) was 6.27 µM. For the same molecule, the TGI (IGROV1 ovarian) was over 100 µM, the GI50 (SK-MEL-2 melanoma) was 1810 nM and the TGI (SK-MEL-2 melanoma) was 21.3 µM. The GI50 (OVCAR-4 ovarian) was 5.68 µM, the TGI (OVCAR-4 ovarian) was over 100 µM and the GI50 (HCT-116 colon) was 852 nM. It also gave a TGI (HCT-116 colon) of 5.02 µM, a GI50 (786-0 renal) of 5.55 µM and a TGI (786-0 renal) of over 100 µM. The GI50 (SK-MEL-5 melanoma) was 620 nM, the TGI (SK-MEL-5 melanoma) was 2880 nM and the GI50 (NCI-H522 lung) was 932 nM. It also gave a TGI (NCI-H522 lung) of 6.44 µM, a GI50 (SR leukemia) of 398 nM and a TGI (SR leukemia) of over 100 µM. The GI50 (OVCAR-3 ovarian) was 512 nM, the TGI (OVCAR-3 ovarian) was 2780 nM and the GI50 (M14 melanoma) was 1740 nM. For the same molecule, the TGI (M14 melanoma) was 13.7 µM, the GI50 (UACC-257 melanoma) was 1300 nM and the TGI (UACC-257 melanoma) was 7.68 µM. The GI50 (OVCAR-8 ovarian) was 5.47 µM, the TGI (OVCAR-8 ovarian) was over 100 µM and the GI50 (MDA-MB-435) was 593 nM. For the same molecule, the TGI (MDA-MB-435) was 2290 nM, the GI50 (MCF7 breast) was 427 nM and the TGI (MCF7 breast) was over 100 µM. It also gave a GI50 (LOX IMVI melanoma) of 645 nM, a TGI (LOX IMVI melanoma) of 2270 nM and a GI50 (SNB-75 CNS) of 4.54 µM. For the same molecule, the TGI (SNB-75 CNS) was 25.3 µM, the GI50 (SF-295 CNS) was 3.75 µM and the TGI (SF-295 CNS) was 40.1 µM. For the same molecule, the GI50 (HOP-92 NSCLC) was 2490 nM, the TGI (HOP-92 NSCLC) was 8.23 µM and the GI50 (MALME-3M melanoma) was 2080 nM. It also gave a TGI (MALME-3M melanoma) of 8.77 µM.
